From patent US11427567B2, “Imidazolyl pyrimidinylamine compounds as CDK2 inhibitors” (Incyte Corporation, priority 2019, dated 2022) come the findings set out here.

Usually IC50 stands for the concentration that gives 50% inhibition. A lower IC50 goes with higher potency.

Bounds are passed on as bounds.

The assay deals with CDK2/Cyclin E1 (Homo sapiens (Human), UniProt P24941). In words: CDK2/Cyclin E1 HTRF enzyme activity assay (Example A). It is filed as biochemical. The conditions noted are these: 1 mM ATP. As for the experimental part: Assays were conducted in white 384-well polystyrene plates in a final reaction volume of 8 μL. […] HTRF signals were read after 1 hour at room temperature on a PHERAstar FS plate reader (BMG Labtech). Data was analyzed with IDBS XLFit and GraphPad Prism 5.0 software using a three or four parameter dose response curve to determine IC50 for each compound.
(In general: TR-FRET usually uses a lanthanide donor and a delayed reading to cut background.)
The molecule `CS(=O)(=O)N1CCC(Nc2ncc(C(F)(F)F)c(-c3cn(-c4ccc(CN5CC6CCC5CC6)cc4Cl)cn3)n2)CC1` [Example 179, 4-(1-(4-((2-Azabicyclo[2.2.2]octan-2-yl)methyl)-2-chlorophenyl)-1H-imidazol-4-yl)-N-(1-(methylsulfonyl)piperidin-4-yl)-5-(trifluoromethyl)pyrimidin-2-amine] showed an IC50 not above 50 nM.
`CC1(O)CN(CCc2cccc(-n3cnc(-c4nc(NC5CCN(S(C)(=O)=O)CC5)ncc4C(F)(F)F)c3)c2Cl)C1` [Example 372, 1-(2-Chloro-3-(4-(2-((1-(methylsulfonyl)piperidin-4-yl)amino)-5-(trifluoromethyl)pyrimi-din-4-yl)-1H-imidazol-1-yl)phenethyl)-3-methylazetidin-3-ol] displayed an IC50 not above 50 nM.
With `CS(=O)(=O)N1CCC(Nc2ncc(C(F)(F)F)c(-c3cn(-c4ccc(CN5CC6CC5CO6)cc4Cl)cn3)n2)CC1` (stereo not shown) [Example 213], the IC50 is not above 50 nM.
As to `CS(=O)(=O)N1CCC(Nc2ncc(C(F)(F)F)c(-c3cn(-c4ccc(C#N)cc4C#N)cn3)n2)CC1` [Example 59, 4-(4-(2-((1-(Methylsulfonyl)piperidin-4-yl)amino)-5-(trifluoromethyl)pyrimidin-4-yl)-1H-imidazol-1-yl)isophthalonitrile], the IC50 was not above 50 nM.
With `CS(=O)(=O)N1CCC(Nc2ncc(C(F)(F)F)c(-c3cn(-c4ccc(CN5CC(F)(F)C5)cc4Cl)cn3)n2)CC1` [Example 193, 4-(1-(2-Chloro-4-((3,3-difluoroazetidin-1-yl)methyl)phenyl)-1H-imidazol-4-yl)-N-(1-(methylsulfonyl)-piperidin-4-yl)-5-(trifluoromethyl)-pyrimidin-2-amine] the figure was not above 50 nM; with `CS(=O)(=O)N1CCC(Nc2ncc(C(F)(F)F)c(-c3cn(-c4ccc5cccnc5c4Cl)cn3)n2)CC1` [Example 165, 4-(1-(8-Chloroquinolin-7-yl)-1H-imidazol-4-yl)-N-(1-(methyl-sulfonyl)piperidin-4-yl)-5-(trifluoromethyl)-pyrimidin-2-amine], not above 50 nM.
Take `CN(C)CCc1ccc(-n2cnc(-c3nc(NC4CCN(S(C)(=O)=O)CC4)ncc3C(F)(F)F)c2)c(Cl)c1` [Example 157, 4-(1-(2-Chloro-4-(2-(dimethylamino)ethyl)phenyl)-1H-imidazol-4-yl)-N-(1-(methylsulfonyl)piperidin-4-yl)-5-(trifluoromethyl)pyrimidin-2-amine]: the IC50 is not above 50 nM.
The molecule `C[C@@H]1CN(S(=O)(=O)C2CC2)CC[C@@H]1Nc1ncc(C(F)(F)F)c(-c2cn(CC(C)(C)O)cn2)n1` [Example 332, 1-(4-(2-(((3R,4S)-1-(Cyclopropylsulfonyl)-3-methylpiperidin-4-yl)amino)-5-(trifluoromethyl)pyrimidin-4-yl)-1H-imidazol-1-yl)-2-methylpropan-2-ol] had an IC50 not above 50 nM.
Turning to `C[C@@H]1CN(S(C)(=O)=O)CC[C@@H]1Nc1ncc(C(F)(F)F)c(-c2cn(-c3ccc(C4CCCCN4)cc3Cl)cn2)n1` (single isomer, unassigned) [Example 277], the IC50 was not above 50 nM.
In the case of `CN(C)Cc1ccc(-n2cnc(-c3nc(NC4CCN(S(C)(=O)=O)CC4)ncc3C(F)(F)F)c2)c(F)c1` [Example 267, 4-(1-(4-((Dimethylamino)methyl)-2-fluorophenyl)-1H-imidazol-4-yl)-N-(1-(methylsulfonyl)piperidin-4-yl)-5-(trifluoromethyl)pyrimidin-2-amine] it was not above 50 nM; in that of `CS(=O)(=O)N1CCC(Nc2ncc(C(F)(F)F)c(-c3cn(-c4ccc(CN5CCCCC5)cc4Cl)cn3)n2)CC1` [Example 208], not above 50 nM.
In the case of `CS(=O)(=O)N1CC[C@H](Nc2ncc(C(F)(F)F)c(-c3cn(-c4ccc(CN5CCC5)cc4Cl)cn3)n2)[C@H](F)C1` [Example 184, 4-(1-(4-(Azetidin-1-ylmethyl)-2-chlorophenyl)-1H-imidazol-4-yl)-N-((3R,4S)-3-fluoro-1-(methylsulfonyl)piperidin-4-yl)-5-(trifluoromethyl)pyrimidin-2-amine] it was not above 50 nM; in that of `Cc1nc(CN2CC(C)(C)C2)ccc1-n1cnc(-c2nc(NC3CCN(S(C)(=O)=O)CC3)ncc2C(F)(F)F)c1` [Example 265, 4-(1-(6-((3,3-Dimethylazetidin-1-yl)methyl)-2-methylpyridin-3-yl)-1H-imidazol-4-yl)-N-(1-(methylsulfonyl)piperidin-4-yl)-5-(trifluoromethyl)pyrimidin-2-amine], not above 50 nM; in that of `Cc1c(C#N)cccc1-n1cc(-c2nc(N[C@H]3CCN(S(C)(=O)=O)C[C@H]3F)ncc2C(F)(F)F)nc1C` [Example 306, 3-(4-(2-(((3R,4S)-3-Fluoro-1-(methylsulfonyl)piperidin-4-yl)amino)-5-(trifluoromethyl)pyrimidin-4-yl)-2-methyl-1H-imidazol-1-yl)-2-methylbenzonitrile], not above 50 nM.
Consider `CNC(=O)c1ccc(-n2cnc(-c3nc(NC4CCN(S(C)(=O)=O)CC4)ncc3C(F)(F)F)c2)c(Cl)c1Cl` [Example 137, 2,3-Dichloro-N-methyl-4-(4-(2-((1-(methylsulfonyl)piperidin-4-yl)amino)-5-(trifluoromethyl)pyrimidin-4-yl)-1H-imidazol-1-yl)benzamide], for which the IC50 was not above 50 nM.
In the case of `Cc1c(C#N)cccc1-n1cnc(-c2nc(NC3CCN(S(C)(=O)=O)CC3)ncc2C(F)(F)F)c1` [Example 43, 2-Methyl-3-(4-(2-((1-(methylsulfonyl)piperidin-4-yl)amino)-5-(trifluoromethyl)pyrimidin-4-yl)-1H-imidazol-1-yl)benzonitrile] it was not above 50 nM; in that of `Cc1nccc(-n2cnc(-c3nc(NC4CCN(S(C)(=O)=O)CC4)ncc3C(F)(F)F)c2)c1C#N` [Example 293, 2-Methyl-4-(4-(2-((1-(methylsulfonyl)piperidin-4-yl)amino)-5-(trifluoromethyl)pyrimidin-4-yl)-1H-imidazol-1-yl)nicotinonitrile], not above 50 nM.
`CS(=O)(=O)N1CCC(Nc2ncc(C(F)(F)F)c(-c3cn(-c4ccc(C#N)nc4C(F)F)cn3)n2)CC1` [Example 100, 6-(Difluoromethyl)-5-(4-(2-((1-(methyl-sulfonyl)piperidin-4-yl)amino)-5-(trifluoro-methyl)pyrimidin-4-yl)-1H-imidazol-1-yl)picolinonitrile] returned an IC50 not above 50 nM.
In turn, `Cn1cc(S(=O)(=O)N2CCC(Nc3ncc(C(F)(F)F)c(-c4ncn(C)c4Br)n3)CC2)cn1` [Example 383, 4-(5-Bromo-1-methyl-1H-imidazol-4-yl)-N-(1-((1-methyl-1H-pyrazol-4-yl)sulfonyl)piperidin-4-yl)-5-(trifluoromethyl)pyrimidin-2-amine] showed an IC50 not above 50 nM.
With `CN(C)c1nccc(-n2cnc(-c3nc(NC4CCN(S(C)(=O)=O)CC4)ncc3C(F)(F)F)c2)c1Cl` [Example 321, 4-(1-(3-Chloro-2-(dimethylamino)pyridin-4-yl)-1H-imidazol-4-yl)-N-(1-(methylsulfonyl)piperidin-4-yl)-5-(trifluoromethyl)pyrimidin-2-amine] the figure was not above 50 nM; with `O=S(=O)(C1CC1)N1CCC(Nc2ncc(C(F)(F)F)c(-c3cn(-c4cccnc4C(F)(F)F)cn3)n2)CC1` [Example 91, N-(1-(Cyclopropylsulfonyl)piperidin-4-yl)-5-(trifluoromethyl)-4-(1-(2-(trifluoromethyl)pyridin-3-yl)-1H-imidazol-4-yl)pyrimidin-2-amine], not above 50 nM.
In turn, `CCNCc1ccc(-n2cc(-c3nc(N[C@H]4CCN(S(C)(=O)=O)C[C@H]4F)ncc3C(F)(F)F)nc2C)c(F)c1` [Example 389, 4-(1-(4-((Ethylamino)methyl)-2-fluorophenyl)-2-methyl-1H-imidazol-4-yl)-N-((3R,4S)-3-fluoro-1-(methylsulfonyl)piperidin-4-yl)-5-(trifluoromethyl)pyrimidin-2-amine] showed an IC50 not above 50 nM.
As for `CS(=O)(=O)N1CCC(Nc2ncc(C(F)(F)F)c(-c3cn(-c4cccc(-c5ccnc(N)c5)c4Cl)cn3)n2)CC1` [Example 96, 4-(1-(3-(2-Aminopyridin-4-yl)-2-chlorophenyl)-1H-imidazol-4-yl)-N-(1-(methylsulfonyl)piperidin-4-yl)-5-(trifluoromethyl)pyrimidin-2-amine], the IC50 is not above 50 nM.
As for `Cn1cnc(S(=O)(=O)N2CCC(Nc3ncc(C(F)(F)F)c(-c4cn(-c5ccc(C#N)cc5Cl)cn4)n3)CC2)c1` [Example 4, 3-Chloro-4-(4-(2-((1-((1-methyl-1H-imidazol-4-yl)sulfonyl)piperidin-4-yl)amino)-5-(trifluoromethyl)pyrimidin-4-yl)-1H-imidazol-1-yl)benzonitrile], the IC50 is not above 50 nM.
In the case of `Cc1c(-c2nc(NC3CCN(S(C)(=O)=O)CC3)ncc2C(F)(F)F)ncn1C` [Example 15, 4-(1,5-Dimethyl-1H-imidazol-4-yl)-N-(1-(methylsulfonyl)piperidin-4-yl)-5-(trifluoromethyl)pyrimidin-2-amine] it was 50 to 200 nM; in that of `COc1nccc(-n2cc(-c3nc(N[C@H]4CCN(S(C)(=O)=O)C[C@H]4F)ncc3C(F)(F)F)nc2C)c1F` [Example 311, N-((3R,4S)-3-Fluoro-1-(methylsulfonyl)piperidin-4-yl)-4-(1-(3-fluoro-2-methoxypyridin-4-yl)-2-methyl-1H-imidazol-4-yl)-5-(trifluoromethyl)pyrimidin-2-amine], not above 50 nM; in that of `CS(=O)(=O)N1CCC(Nc2ncc(C(F)(F)F)c(-c3cn(-c4ccc(N5CCNC(=O)C5)cc4Cl)cn3)n2)CC1` [Example 150, 4-(3-Chloro-4-(4-(2-((1-(methyl-sulfonyl)piperidin-4-yl)amino)-5-(trifluoromethyl)-pyrimidin-4-yl)-1H-imidazol-1-yl)-phenyl)piperazin-2-one], not above 50 nM.
With `CC1(O)CN(Cc2ccc(-n3cnc(-c4nc(NC5CCN(S(C)(=O)=O)CC5)ncc4C(F)(F)F)c3)c(Cl)c2)C1` [Example 194, 1-(3-Chloro-4-(4-(2-((1-(methylsulfonyl)-piperidin-4-yl)amino)-5-(trifluoromethyl)-pyrimidin-4-yl)-1H-imidazol-1-yl)benzyl)-3-methylazetidin-3-ol] the figure was not above 50 nM.
